One test has as its target T1, rat EP1 receptor (Rattus norvegicus, UniProt P70597).
T1 construct: expressed in transfected cells; host or cells: COS-1 cells, transient transfection with Lipofectamine 2000
T1 sequence (P70597 1-405): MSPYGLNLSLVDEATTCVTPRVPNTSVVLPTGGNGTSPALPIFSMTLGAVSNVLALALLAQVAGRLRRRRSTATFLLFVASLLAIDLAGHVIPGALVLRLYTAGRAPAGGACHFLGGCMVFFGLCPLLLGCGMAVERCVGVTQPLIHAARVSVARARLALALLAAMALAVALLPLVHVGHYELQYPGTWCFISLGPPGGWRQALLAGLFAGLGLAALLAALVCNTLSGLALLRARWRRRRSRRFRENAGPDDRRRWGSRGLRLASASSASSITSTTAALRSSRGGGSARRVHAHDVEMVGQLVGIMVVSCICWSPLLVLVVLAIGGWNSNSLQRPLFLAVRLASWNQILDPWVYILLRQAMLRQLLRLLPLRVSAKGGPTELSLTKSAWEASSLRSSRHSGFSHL
Description: Test for confirmation of EP1 receptor antagonism: inhibition of prostaglandin E2-induced increase in intracellular calcium concentration (Method A or Method B). To be noted: rat EP1 receptor-expressing cells, prostaglandin E2 10 nM. In kind it is cell-based. As to the method:
(1) Preparation of Rat EP1 Expression vector
Using Rat Kidney BD Marathon-Ready cDNA (Nippon Becton Dickinson Company, Ltd.) as a template, a forward primer shown in SEQ ID NO. 1, and a reverse primer shown in SEQ ID NO. 2, a first run of PCR was carried out using KOD-Plus-Ver 2.0 (Toyobo Co., Ltd.). Further, using this amplification product as a template, a forward primer shown in SEQ ID NO. 3, and a reverse primer shown in SEQ ID NO. 4, a second run of PCR was carried out in the same manner. The amplification product obtained by the second run of PCR was incorporated into a vector (pcDNA3.1 D/V5-His-TOPO (registered trademark), Invitrogen Japan K. K.). By a conventional method, the vector containing this amplification product was introduced to E. coli (One Shot TOP10 Competent Cells, Invitrogen Corporation) to transform. This transformed E. coli was cultured in an LB agar medium for one day. After the culture, colonies were selected and cultured in an LB liquid medium containing 50 μg/mL of ampicillin. After the culture, the vector was purified using a QIAprep Spin Miniprep Kit (Qiagen K. K.). The base sequence of the insertion site of this vector (SEQ ID NO. 5) was compared with the rat EP1 base sequence (Ptger1) registered as an accession number NM_013100 in well-known database (NCBI), and as a result, they all matched except for a single base. Further, the amino acid sequence translated by the base sequence completely matched the amino acid sequence of the rat EP1 receptor registered as an NCBI accession number NP_037232. Therefore, it was confirmed that the cloned gene sequence was a base sequence of the rat EP1 receptor and the obtained amino acid sequence was that of the rat EP1 receptor. The pcDNA3.1 D/V5-His-TOPO (registered trademark) to which the nucleic acid shown in SEQ ID NO. 5 had been inserted was taken as a rat EP1-expressing vector.
(2) Preparation of Rat EP1 Receptor-Expressing Cells
COS-1 cells (Dainippon Sumitomo Pharma Co., Ltd.) were cultured until it reached confluence in an incubator at 37° C. under a 5% CO2 gas condition, using a D-MEM liquid medium (high glucose and L-glutamine contained, Invitrogen Corporation) to which a penicillin-streptomycin solution (Invitrogen Corporation, final concentration: 100 U/mL as benzylpenicillin; 100 μg/mL as streptomycin) as an antibiotic, MEM nonessential amino acids (Invitrogen Corporation, final Concentration: 0.1 mM), and fetal calf serum (Sanko Junyaku Co., Ltd., final concentration: 10%) were added.
(2-2) COS-1 Cell Subculture
The cells that had reached confluence were stripped with 0.05% trypsin/0.53 mM EDTA 4Na (Invitrogen Japan K. K.) and resuspended in the above liquid medium. The resuspended cells were diluted and cultured in the above liquid medium at a spread ratio from 1:4 to 1:8.
(2-3) Preparation of Cells for Introduction of Rat EP1-Expressing Vector
The cells that had reached confluence were stripped with 0.05% trypsin/0.53 mM EDTA.4Na, and resuspended in a D-MEM liquid medium (high glucose and L-glutamine contained, Invitrogen Corporation) to which an MEM nonessential amino acid (final concentration: 0.1 mM) and fetal calf serum (final concentration: 10%) were added. In each well of a Poly D-lysine-coated 96-well microplate (BD BioCoat (registered trademark), Nippon Becton Dickinson Company, Ltd.), this resuspended cell suspension culture was prepared to be 5×10^4 cells/well in 100 μL of the liquid medium, and seeded thereon. After seeding, the cells were cultured in an incubator at 37° C. under a 5% CO2 gas condition. At a point when the cells for introduction of a rat EP1-expressing vector were adhered (about 2 hours after seeding), introduction of the rat EP1-expressing vector was carried out in the following order.
(2-4) Introduction of Rat EP1-Expressing Vector
For introduction of the rat EP1-expressing vector, Lipofectamine 2000 (Invitrogen Japan K. K.) was used. […]
A general note: A change in cytosolic calcium serves as a functional read-out for many receptors and channels.

Test [1] has as its system sulprostone-induced bladder contraction. Description: Inhibitory effect of compound on sulprostone-induced bladder contraction. To be noted: test agent 1.0 mg/kg intravenously, sulprostone 0.3 mg/kg subcutaneously, female SD rats. In kind it is in vivo. The protocol:
Female SD rats were used. Under urethane anesthesia (1.25 g/kg, administered subcutaneously), a tracheal cannula (Size 8, HIBIKI) and a femoral vein cannula for administration (23G needle-equipped PESO) were inserted thereinto. The bladder cannula (PESO) was inserted from the bladder apex. The bladder cannula was connected to a three-way stopcock, and then, one was connected to a pressure transducer and the other was connected to a syringe filled with saline. Saline was injected to the bladder at an injection rate of 3.6 mL/hour and the bladder contraction pressure was recorded at the time of injection with a recorder (RECTI-HORITZ-8K, NEC Corporation). After 10 minutes from stabilization of the bladder contraction pressure during urination, sulprostone was administered subcutaneously (0.3 mg/kg). Then, at the time point when the bladder contraction pressure became constant, a test agent was administered intravenously (1.0 mg/kg). An average bladder contraction pressure during the 10 minutes period before administration of sulprostone was taken as a baseline (0%). Further, an average bladder contraction pressure during the 10 minutes period before administration of the test agent was taken as a maximum bladder contraction pressure (100%). […] The ratio of this measured value to the maximum bladder contraction pressure was calculated by the following equation and taken as an average bladder contraction rate after administration of the test agent: (Average Bladder Contraction Rate after Administration of Test Agent (%))=(Average Bladder Contraction Pressure after Administration of Test Agent)/(Maximum Bladder Contraction Pressure). In addition, the difference between the maximum bladder contraction rate (100%) and the average bladder contraction rate (%) after administration of the test agent was calculated by the following equation and taken as a bladder contraction inhibition rate of the test agent: (Bladder Contraction Inhibition Rate)=100%−(Average Bladder Contraction Rate after Administration of Test Agent (%)).

[2] abbreviates: Method B (Calcium kit II Fluo 4, FDSS 7000).
[3] abbreviates: Method A (Fluo-4 NW, FlexStation).

Take `COc1ccc2c(Cc3cccc(C(=O)O)n3)c(-c3cccc(F)c3)[nH]c2c1` [Example 11-5, 6-[2-(3-fluorophenyl)-6-methoxy-1H-indol-3-ylmethyl]pyridine-2-carboxylic acid]: the IC50 on rat EP1 receptor (setting [2]) was found to be 0.014 µM. Further, in test [1], the “Bladder Contraction Inhibition Rate (%) 15 Minutes” value worked out at 79.7% and the “Bladder Contraction Inhibition Rate (%)” value is 81.9%.

For the molecule `COc1ccc2c(Cc3cccc(C(=O)O)c3)c(-c3ccccc3)[nH]c2c1` [Example 4-2, 3-(6-methoxy-2-phenyl-1H-indol-3-ylmethyl)benzoic acid], at rat EP1 receptor (setting [3]), the IC50 worked out at 0.032 µM. For the same molecule, in test [1], the “Bladder Contraction Inhibition Rate (%) 15 Minutes” value is recorded as 78.3% and the “Bladder Contraction Inhibition Rate (%)” value is given as 80.4%. Consider `COc1ccc2c(Cc3cccc(C(=O)O)n3)c(-c3ccsc3)[nH]c2c1` [Example 11-1, 6-(6-methoxy-2-thiophen-3-yl-1H-indol-3-ylmethyl)pyridine-2-carboxylic acid], for which the IC50 at rat EP1 receptor (setting [3]) was 0.011 µM. In addition, in test [1], the “Bladder Contraction Inhibition Rate (%) 15 Minutes” value came to 86.1% and the “Bladder Contraction Inhibition Rate (%)” value was 76.8%.

As for `COc1ccc2c(Cc3cccc(C(=O)O)n3)c(-c3ccccc3)[nH]c2c1` [Example 4-1, 6-(6-methoxy-2-phenyl-1H-indol-3-ylmethyl)pyridine-2-carboxylic acid], the IC50 on rat EP1 receptor (setting [3]) is 0.01 µM. Also, in test [1], the “Bladder Contraction Inhibition Rate (%) 15 Minutes” value came to 90.1% and the “Bladder Contraction Inhibition Rate (%)” value was 94.2%. Taken in the same sequence, the figures for `COc1ccc2c(Cc3cccc(C(=O)O)n3)c(-c3csc(C)c3)[nH]c2c1` [Example 11-20, 6-[6-methoxy-2-(5-methylthiophen-3-yl)-1H-indol-3-ylmethyl]pyridine-2-carboxylic acid] were 0.026 µM, 81.4% and 82.9%. Consider `Cc1cc2c(Cc3cccc(C(=O)O)n3)c(-c3ccsc3)[nH]c2cc1C1CC1` [Example 16-102, 6-(6-cyclopropyl-5-methyl-2-thiophen-3-yl-1H-indol-3-ylmethyl)pyridine-2-carboxylic acid], for which the IC50 at rat EP1 receptor (setting [2]) turned out to be 0.049 µM. Regarding `CCOc1cc2[nH]c(-c3ccsc3)c(Cc3cccc(C(=O)O)n3)c2cc1C` [Example 16-93, 6-(6-ethoxy-5-methyl-2-thiophen-3-yl-1H-indol-3-ylmethyl)pyridine-2-carboxylic acid], the IC50 at rat EP1 receptor (setting [2]) is 0.046 µM. Take `COc1ccc2c(Cc3ccc(F)c(C(=O)O)c3)c(-c3ccccc3)[nH]c2c1` [Example 16-18, 2-fluoro-5-(6-methoxy-2-phenyl-1H-indol-3-ylmethyl)benzoic acid]: at rat EP1 receptor (setting [2]), the IC50 turned out to be 0.03 µM.

Turning to `COc1cc2[nH]c(C(C)(C)C)c(Cc3cccc(C(=O)O)n3)c2cc1F` [Example 16-97, 6-(2-tert-butyl-5-fluoro-6-methoxy-1H-indol-3-ylmethyl)pyridine-2-carboxylic acid], the half-maximal inhibitory concentration (IC50) at rat EP1 receptor (setting [2]) is 0.032 µM.

As to `Cc1cc2c(Cc3cccc(C(=O)O)n3)c(-c3ccsc3)[nH]c2cc1Cl` [Example 16-92, 6-(6-chloro-5-methyl-2-thiophen-3-yl-1H-indol-3-ylmethyl)pyridine-2-carboxylic acid], the concentration for half-maximal inhibition (IC50) at rat EP1 receptor (setting [2]) was 0.03 µM. `Cc1cc2[nH]c(-c3cccnc3)c(Cc3cccc(C(=O)O)n3)c2cc1C` [Example 16-58, 6-(5,6-dimethyl-2-pyridin-3-yl-1H-indol-3-ylmethyl)pyridine-2-carboxylic acid]: the IC50 on rat EP1 receptor (setting [2]) was 0.038 µM.

Take `COc1cc2[nH]c(-c3ccccc3)c(Cc3cccc(C(=O)O)n3)c2cc1C` [Example 16-12, 6-(6-methoxy-5-methyl-2-phenyl-1H-indol-3-ylmethyl)pyridine-2-carboxylic acid]: at rat EP1 receptor (setting [2]), the IC50 turned out to be 0.023 µM. On the same count and under the same terms, to `COc1cc2c(Cc3cccc(C(=O)O)n3)c(-c3ccccc3)[nH]c2cc1C` [Example 16-78, 6-(5-methoxy-6-methyl-2-phenyl-1H-indol-3-ylmethyl)pyridine-2-carboxylic acid] belongs 0.024 µM. Turning to `COc1cc2c(Cc3cccc(C(=O)O)n3)c(-c3ccsc3)[nH]c2cc1Cl` [Example 16-86, 6-(6-chloro-5-methoxy-2-thiophen-3-yl-1H-indol-3-ylmethyl)pyridine-2-carboxylic acid], the half-inhibitory concentration (IC50) on rat EP1 receptor (setting [2]) is 0.018 µM. On to `COc1cc2[nH]c(-c3cccnc3)c(Cc3cccc(C(=O)O)n3)c2cc1C` [Example 16-66, 6-(6-methoxy-5-methyl-2-pyridin-3-yl-1H-indol-3-ylmethyl)pyridine-2-carboxylic acid], for which, at rat EP1 receptor (setting [2]), the IC50 was found to be 0.03 µM. Same read-out and setting: to `COc1cc2[nH]c(-c3ccsc3)c(Cc3cccc(C(=O)O)n3)c2cc1Cl` [Example 16-29, 6-(5-chloro-6-methoxy-2-thiophen-3-yl-1H-indol-3-ylmethyl)pyridine-2-carboxylic acid] belongs 0.027 µM.

`O=C(O)c1cccc(Cc2c(-c3ccccc3)[nH]c3cc(OC(F)F)ccc23)n1` [Example 16-73]: the IC50 at rat EP1 receptor (setting [2]) was determined as 0.023 µM.

Take `COc1ccc2c(Cc3cccc(C(=O)O)n3)c(-c3ccc(F)c(F)c3)[nH]c2c1` [Example 16-2, 6-[2-(3,4-difluorophenyl)-6-methoxy-1H-indol-3-ylmethyl]pyridine-2-carboxylic acid]: at rat EP1 receptor (setting [2]), the 50% inhibitory concentration (IC50) stood at 0.023 µM.

As to `O=C(O)c1cccc(Cc2c(-c3ccc(F)cc3)[nH]c3cc(C4CC4)c(F)cc23)n1` [Example 16-74, 6-[6-cyclopropyl-5-fluoro-2-(4-fluorophenyl)-1H-indol-3-ylmethyl]pyridine-2-carboxylic acid], at rat EP1 receptor (setting [2]), the concentration for half-maximal inhibition (IC50) is 0.047 µM.

What is called IC50 is the concentration that inhibits the measured activity by half.

The record behind these values is patent US20120122931A1, “INDOLE DERIVATIVE OR PHARMACEUTICALLY ACCEPTABLE SALT THEREOF” (KISSEI PHARMACEUTICAL CO., LTD., priority 2009, published 2012).
